From patent US5525629A, “Inhibition of cytokine production” (British Bio-Technology Limited, priority 1992, dated 1996)

Tests used:
stromelysin = stromelysin (Homo sapiens, UniProt P08254); test: inhibition of stromelysin (Cawston et al, acetylated 14C casein); assay type: biochemical; conditions: 37°, 16 hours, pH 7.5
Text: The casein was acetylated ^14 C casein prepared by the method of Cawston et al (ibid).

collagenase = biological target: T1, collagenase (Homo sapiens, UniProt P03956); test: inhibition of collagenase (Cawston and Barrett, acetylated 14C collagen); assay type: biochemical; conditions: 37°, 16 hours, pH 7.5
T1 sequence (P03956 100-469): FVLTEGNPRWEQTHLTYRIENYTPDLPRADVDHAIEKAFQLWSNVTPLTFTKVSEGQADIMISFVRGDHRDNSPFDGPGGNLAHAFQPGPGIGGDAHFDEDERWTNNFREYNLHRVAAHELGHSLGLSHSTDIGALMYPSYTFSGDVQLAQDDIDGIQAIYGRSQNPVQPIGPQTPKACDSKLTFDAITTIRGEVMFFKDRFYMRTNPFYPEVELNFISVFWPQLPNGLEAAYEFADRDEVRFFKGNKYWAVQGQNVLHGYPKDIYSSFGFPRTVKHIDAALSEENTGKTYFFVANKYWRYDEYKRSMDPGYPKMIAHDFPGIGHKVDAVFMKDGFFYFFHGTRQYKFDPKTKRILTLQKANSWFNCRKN
Text: The collagen was acetylated ^14 C collagen prepared by the method of Cawston and Murphy, (Methods in Enzymology, 80, 711, 1981), hereby incorporated by reference. The samples were centrifuged to sediment undigested collagen, and an aliquot of the radioactive supernatant removed for assay on a scintillation counter as a measure of hydrolysis.

[1] = tested on: TNF α release from a human monocytic cell line, U937; test: inhibition of PMA-stimulated TNF α release from U937 cells (TNF α ELISA); assay type: cell-based; conditions: U-937, PMA 50 nM, 18 hours at 37° C., read-out: concentration of test compound which inhibits the release of TNF α by 50% relative to the control culture (IC50)
Protocol: The ability of example compounds of the invention to inhibit the release of TNF was investigated. The assay is based on the ability of phorbol myristate acetate (PMA) to stimulate the release of TNF α from a human monocytic cell line, U937.
U937 cells cultured in RPMI 1640 medium +5% foetal calf serum are centifuged at 1000×g for 5 minutes and then resuspended in medium at 2×10^6 /mi. 1 ml of cell suspension is aliquoted into individual wells of 24-well plates. Test compounds are dissolved in dimethyl sulphoxide (DMSO) at a stock concentration of 100 mM, then diluted to 50×the final required concentration with RPMI 1640 medium. 20 μl of the diluted compounds are added to U937 cells in duplicate wells. TNF α release is stimulated by addition of PMA to the cells at a final concentration of 50 nM. Appropriate control cultures are set up in duplicate. The plates are incubated for 18 hours at 37° C., 5% CO2, then centrifuged at 1000×g for 5 minutes. A specific ELISA for TNF α obtained from British Bio-technology Products Limited, Abingdon, England is used to measure TNF α levels in the culture supernatants
The average concentration of test compound which inhibits the release of TNF α by 50% relative to the control culture was assessed.

serum TNF = test: inhibition of endotoxin (LPS) induced TNF production in vivo (serum TNF by L929 cytotoxicity assay); parameters: species or system Male New Zealand rabbits
Protocol: The compound of Example 3 was assessed for its ability to inhibit release of endotoxin induced TNF production in vivo.
Male New Zealand rabbits, 2.5-3.0 kg, were anaesthetised with sodium pentobarbitone, 30 mg.kg^-1 via a marginal ear vein which was maintained by infusion at 18 mg.kg^-1.hr^-1 via a jugular vein. Following tracheotomy, the animals were ventilated, to maintain arterial blood […], and oxygen was added to the inspired air to maintain arterial blood PO2 above 100 mmHg. Both femoral veins were cannulated for the administration of endotoxin (LPS) and the infusion of test compound, 2.5 mg.kg^-1.hr^-1 at a rate of 6 ml.hr^-1, 15 minutes before the administration of LPS, 40 μg.kg^-1 i.v. bolus. Blood samples were collected from a femoral artery just before and at 30 minute intervals after the administration of LPS for a period of 4 hours.
The biological activity of TNF in serum test samples was determined using a cytotoxicity assay as described in Mathews, N. and Neale, M. L. in Lymphokines and Interferons, a Practical Approach, Eds. M. J. Clements, A. G. Morris, and A. J. H. Gearing, IRL Press, Oxford, UK.
100 μl volumes of L929 cell suspension at 10^5 cells/ml were dispensed into 96-well microtitre plates. The plates were incubated overnight to allow formation of an even monolayer. A series of dilutions of the test rabbit serum was made in a culture medium containing 2 μg/ml of actinomycin D to give a final concentration of 1 μg/ml when added to the cells. The L929 cells were incubated for 24 hours in the presence of test samples, and serially diluted human TNF α was used as the assay standard. After the incubation period, dead cells were removed by washing briefly with phosphate buffered saline, and remaining cells were fixed with 4% formaldehyde for 10 minutes. After washing the plates with water to remove the fixative, the cells were stained by the addition of 50 μl of 1% crystal violet to each well for 5 minutes. The plates were washed extensively with water and dried. Cells were solubilised by the addition of 100 μl/well of 30% acetic acid and the OD at 550 nm was determined. The TNF level in units/ml in the test samples was determined from the human TNF α standard curve. where 1 unit is the equivalent of 1 pg/ml human TNF α.

[2] = tested on: TNF production by leucocytes; conditions: literature (Sampajo et al, 1991); cited from earlier work
TNF gene transcription = conditions: literature; compared with corticosteroids, cyclosporin-A, FK506; cited from earlier work

Sequence of stromelysin (P08254 100-477): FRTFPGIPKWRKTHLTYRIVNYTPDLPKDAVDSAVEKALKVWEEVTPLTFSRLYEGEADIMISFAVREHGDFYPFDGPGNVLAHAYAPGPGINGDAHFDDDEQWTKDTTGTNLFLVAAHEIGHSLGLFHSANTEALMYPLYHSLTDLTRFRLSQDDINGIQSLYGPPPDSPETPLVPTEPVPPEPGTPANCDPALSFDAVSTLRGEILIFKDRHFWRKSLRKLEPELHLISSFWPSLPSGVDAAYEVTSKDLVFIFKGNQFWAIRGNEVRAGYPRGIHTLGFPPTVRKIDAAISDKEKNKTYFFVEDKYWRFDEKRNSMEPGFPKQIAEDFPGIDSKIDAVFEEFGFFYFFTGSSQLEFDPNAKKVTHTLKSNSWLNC

IC50 (stromelysin)	IC50 (collagenase)	IC50 [1]	SMILES	further results
0.25 µM	0.02 µM	–	CNC(=O)[C@H](CCC(=O)OC)NC(=O)[C@H](CC(C)C)[C@H](CSc1ccccc1)C(=O)NO [Example 1, 3R-(3-Methoxycarbonyl-1S-methylcarbamoyl-propylcarbamoyl)-5-methyl-2-S-phenylsulfanylmethyl hexanohydroxamic acid]	–
–	0.015 µM	< 50 µM	CNC(=O)[C@H](CCC(=O)OC)NC(=O)[C@H](CC(C)C)[C@H](CSc1cccs1)C(=O)NO [Example 2, 3R-(3-Methoxycarbonyl-1S-methylcarbamoyl-propylcarbamoyl)-5-methyl-2S-(thien-2-ylsulfanylmethyl)-hexanohydroxamic acid]	–
0.05 µM	0.009 µM	< 50 µM	CNC(=O)[C@H](CCC(=O)OC)NC(=O)[C@H](CC(C)C)[C@H](CSc1ccc(O)cc1)C(=O)NO [Example 3, 2S-(4-Hydroxyphenylsulfanylmethyl)-3R-(3-methoxycarbonyl-1S-methylcarbamoyl-propylcarbamoyl)-5-methyl-hexanohydroxamic acid]	Average % change in serum TNF level, LPS + test compound (serum TNF; 0 hrs from LPS bolus IV injection, infusion 2.5 mg.kg^-1.hr^-1 started 15 minutes before LPS 40 μg.kg^-1 i.v., n = 4): 0%; Average % change in serum TNF level, LPS + test compound (serum TNF; 1 hr from LPS bolus, infusion 2.5 mg.kg^-1.hr^-1, LPS alone (n = 5) +65): -58%; Average % change in serum TNF level, LPS + test compound (serum TNF; 2 hrs from LPS bolus, infusion 2.5 mg.kg^-1.hr^-1, LPS alone (n = 5) +55): -65%; Average % change in serum TNF level, LPS + test compound (serum TNF; 3 hrs from LPS bolus, infusion 2.5 mg.kg^-1.hr^-1, LPS alone (n = 5) -30): -99%; Average % change in serum TNF level, LPS + test compound (serum TNF; 4 hrs from LPS bolus, infusion 2.5 mg.kg^-1.hr^-1, LPS alone (n = 5) -100): -100%
–	–	–	O=C1CCC(N2C(=O)c3ccccc3C2=O)C(=O)N1 (centres unmarked) [Thalidomide]	inhibition of TNF production by leucocytes [2]: inhibit TNF production by leucocytes
–	–	–	CC(=O)CCCCn1c(=O)c2c(ncn2C)n(C)c1=O [pentoxyfilline]	specificity of inhibition of TNF gene transcription (TNF gene transcription): more specific inhibitors of TNF gene transcription

SMILES	IC50 (stromelysin)	IC50 (collagenase)	IC50 [1]	further results
CNC(=O)[C@H](CCC(=O)OC(C)(C)C)NC(=O)[C@H](CC(C)C)[C@H](CSc1ccc(O)cc1)C(=O)NO [Example 12, 2S-(4-Hydroxyphenylsulfanylmethyl)-3R-(3-tertbutoxycarbonyl-1S-methylcarbamoyl-propylcarbamoyl)-5-methyl-hexanohydroxamic acid]	0.04 µM	0.02 µM	< 50 µM	–
